Laboratory results taken from patent publication US20250304616A1, “NOVEL PEPT[…] AND DESIGN” (priority 2020, published 2025).
pIC50: −log10 of the molar value. Where two headings read alike, the source gives them in different places.

System: recombinant rabies virus 1088 strain (1088/GLuc)
Assay: microbe, parasite or virus in culture
Format: cell-based, rabies virus in Neuro-2a cells
Details: read-out: Anti-rabies activity

CC(C)CC(=O)OCC1=CCN2C3CC(NC(=O)Cc4ccccc4)C1C2CN(Cc1ccccc1)C3 (stereo not shown) [12aab]
pIC50 (Lyssavirus rabies, N2a, 72 h): > 5.00

COc1ccc(CN2C[C@@H]3C[C@H]4C(=O)N[C@]3(C(=O)NCc3ccccc3)[C@@H]2[C@@H]4CC(C)C)cc1 (relative stereo) [IB-5, (3S, 3aS, 6R′, 7R*, 7aS*) —N-benzyl-7-isobutyl-1-(4-methoxybenzyl)-5-oxooctahydro-3@H-3,6-methanopyrrolo[3,2-b]pyridine-3a-carboxamide]
pIC50: > 5.00

COc1ccc(CN2CC3CC4(C(=O)NCc5ccccc5)NC(=O)C3C2C4CC(C)C)cc1F (stereo not shown) [IF-801]
pIC50 (Lyssavirus rabies, N2a, 72 h): > 5.00

COc1ccc(CN2C[C@H]3C[C@]4(C(=O)NCc5ccccc5)NC(=O)[C@H]3[C@H]2[C@H]4CC(C)C)cc1 (relative stereo) [IF-6, (3S*, 3aR*, 6S*, 7R*, 7aR*) —N-benzyl-7-isobutyl-1-(4-methoxybenzyl)-4-oxooctahydro-6H-3,6-methanopyrrolo[3,2-c]pyridine-6-carboxamide]
pIC50 (Lyssavirus rabies, N2a, 72 h): > 5.00
